Blank lines part the entries; values can stand above or below the compound they belong to.
What was measured:
α-enolase (ENO1) [1] = target: T1, α-enolase (ENO1) (Homo sapiens, UniProt P06733); assay: SPR; type: binding
α-enolase (ENO1) [2] = target: T1, α-enolase (ENO1); assay: PKM1-coupled luminescent Kinase-Glo assay; type: biochemical
α-enolase (ENO1) [3] = target: T2, α-enolase (ENO1) (Homo sapiens, UniProt P06733, K330E); assay: PKM1-coupled luminescent Kinase-Glo assay; type: biochemical
α-enolase (ENO1) [4] = target: T2, α-enolase (ENO1); assay: SPR; type: binding
PKM2 = PKM2 (Homo sapiens, UniProt P14618); assay: SPR; type: binding
TRIM28 = TRIM28 (Homo sapiens, UniProt Q13263); assay: SPR; type: binding
GAPDH = GAPDH (Homo sapiens, UniProt P04406); assay: NADH absorbance at […] nm; type: biochemical; details: activator, allosteric suggested; 1 mM NAD+, 2.88 mM G3P, 20 mM arsenate, pH 8.5
Sequence of GAPDH (P04406 2-335): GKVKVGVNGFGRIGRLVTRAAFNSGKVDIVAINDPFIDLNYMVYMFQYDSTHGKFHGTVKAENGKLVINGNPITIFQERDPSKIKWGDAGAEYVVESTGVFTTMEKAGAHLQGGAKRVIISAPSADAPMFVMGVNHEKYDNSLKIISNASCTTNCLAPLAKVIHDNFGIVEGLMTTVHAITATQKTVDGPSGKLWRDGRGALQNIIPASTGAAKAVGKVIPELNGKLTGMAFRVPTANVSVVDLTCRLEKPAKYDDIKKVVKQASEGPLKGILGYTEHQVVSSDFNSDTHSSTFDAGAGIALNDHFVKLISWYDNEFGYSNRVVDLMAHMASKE

T1 sequence (P06733 whole entry): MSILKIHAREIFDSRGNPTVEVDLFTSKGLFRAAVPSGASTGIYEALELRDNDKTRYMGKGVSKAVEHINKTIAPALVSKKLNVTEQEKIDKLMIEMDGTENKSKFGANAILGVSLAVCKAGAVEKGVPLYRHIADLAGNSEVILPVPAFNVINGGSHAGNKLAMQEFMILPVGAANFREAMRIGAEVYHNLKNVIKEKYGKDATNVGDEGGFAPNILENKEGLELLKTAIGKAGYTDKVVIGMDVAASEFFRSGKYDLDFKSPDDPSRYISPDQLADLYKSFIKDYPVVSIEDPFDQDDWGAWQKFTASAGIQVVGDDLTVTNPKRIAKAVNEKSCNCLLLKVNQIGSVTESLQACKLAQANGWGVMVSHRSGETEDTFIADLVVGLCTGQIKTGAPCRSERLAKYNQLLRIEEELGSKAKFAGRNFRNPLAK
T2 sequence (P06733 whole entry K330E): as the sequence (P06733 whole entry) above, with K330E counted along it
Sequence of PKM2 (P14618 2-531): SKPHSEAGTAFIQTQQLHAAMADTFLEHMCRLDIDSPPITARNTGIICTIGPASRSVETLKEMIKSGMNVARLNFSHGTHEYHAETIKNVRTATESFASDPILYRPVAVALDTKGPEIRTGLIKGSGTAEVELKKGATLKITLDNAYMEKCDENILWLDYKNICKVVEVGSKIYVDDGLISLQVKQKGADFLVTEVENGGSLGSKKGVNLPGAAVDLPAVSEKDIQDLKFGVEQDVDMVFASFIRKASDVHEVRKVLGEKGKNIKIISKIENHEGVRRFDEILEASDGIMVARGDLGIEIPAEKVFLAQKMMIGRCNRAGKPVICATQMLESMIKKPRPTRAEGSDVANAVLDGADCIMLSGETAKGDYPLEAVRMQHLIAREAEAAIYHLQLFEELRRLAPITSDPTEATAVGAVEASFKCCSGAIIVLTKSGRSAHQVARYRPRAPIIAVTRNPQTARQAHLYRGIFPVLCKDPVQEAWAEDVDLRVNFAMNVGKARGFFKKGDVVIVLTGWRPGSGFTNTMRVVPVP
Sequence of TRIM28 (Q13263 whole entry): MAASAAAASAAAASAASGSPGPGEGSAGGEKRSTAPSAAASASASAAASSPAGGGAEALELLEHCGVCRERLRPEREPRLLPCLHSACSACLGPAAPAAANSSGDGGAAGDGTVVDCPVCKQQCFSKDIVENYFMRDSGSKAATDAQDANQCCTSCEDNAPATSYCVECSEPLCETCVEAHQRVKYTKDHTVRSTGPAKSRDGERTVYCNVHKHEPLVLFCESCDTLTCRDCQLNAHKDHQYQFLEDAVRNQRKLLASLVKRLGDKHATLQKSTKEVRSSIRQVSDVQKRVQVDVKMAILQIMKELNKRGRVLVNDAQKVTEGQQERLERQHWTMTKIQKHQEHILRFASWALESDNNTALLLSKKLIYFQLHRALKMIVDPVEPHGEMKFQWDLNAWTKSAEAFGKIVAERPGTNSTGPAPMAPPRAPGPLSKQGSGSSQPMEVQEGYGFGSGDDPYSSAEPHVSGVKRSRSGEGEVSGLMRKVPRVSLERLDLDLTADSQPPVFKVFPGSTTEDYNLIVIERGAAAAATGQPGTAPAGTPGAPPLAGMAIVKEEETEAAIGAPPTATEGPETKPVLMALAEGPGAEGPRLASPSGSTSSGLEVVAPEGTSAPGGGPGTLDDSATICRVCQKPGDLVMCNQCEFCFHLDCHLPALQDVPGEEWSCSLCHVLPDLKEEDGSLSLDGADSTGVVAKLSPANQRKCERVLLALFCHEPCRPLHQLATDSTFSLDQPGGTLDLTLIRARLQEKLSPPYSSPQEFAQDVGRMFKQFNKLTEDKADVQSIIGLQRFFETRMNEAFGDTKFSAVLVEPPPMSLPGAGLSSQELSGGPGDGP

Kd (α-enolase (ENO1) [1]): 0.0254 µM
IC50 (α-enolase (ENO1) [2]): 113 µM
IC50 (α-enolase (ENO1) [3]): 1170 µM
Kd (α-enolase (ENO1) [4]): 10.3 µM
Compound: O=CC(O)COP(=O)(O)O (racemic) [G3P]

Kd (PKM2): 0.26 µM
Compound: O=C(O)[C@H](O)COP(=O)(O)O [3PG]

Kd (TRIM28): 0.0412 µM
Compound: C[C@H](O)C(=O)O [lactate]

NADH absorbance at 340 nm (GAPDH): pyruvate can bind to and activate GAPDH
Compound: CC(=O)C(=O)O [pyruvate]
